Reference: patent publication US20030194750A1, “Methods for treatment of diseases where GSK 3-beta is desired, and methods to identify compounds usefule for that” (priority 2002, published 2003)

Molecular target: T1, COX I (Ovis aries, UniProt P05979)
T1 construct: The COX was purified from ram seminal vesicles; from tissue; host or cells: ram seminal vesicles
T1 sequence (P05979 25-600): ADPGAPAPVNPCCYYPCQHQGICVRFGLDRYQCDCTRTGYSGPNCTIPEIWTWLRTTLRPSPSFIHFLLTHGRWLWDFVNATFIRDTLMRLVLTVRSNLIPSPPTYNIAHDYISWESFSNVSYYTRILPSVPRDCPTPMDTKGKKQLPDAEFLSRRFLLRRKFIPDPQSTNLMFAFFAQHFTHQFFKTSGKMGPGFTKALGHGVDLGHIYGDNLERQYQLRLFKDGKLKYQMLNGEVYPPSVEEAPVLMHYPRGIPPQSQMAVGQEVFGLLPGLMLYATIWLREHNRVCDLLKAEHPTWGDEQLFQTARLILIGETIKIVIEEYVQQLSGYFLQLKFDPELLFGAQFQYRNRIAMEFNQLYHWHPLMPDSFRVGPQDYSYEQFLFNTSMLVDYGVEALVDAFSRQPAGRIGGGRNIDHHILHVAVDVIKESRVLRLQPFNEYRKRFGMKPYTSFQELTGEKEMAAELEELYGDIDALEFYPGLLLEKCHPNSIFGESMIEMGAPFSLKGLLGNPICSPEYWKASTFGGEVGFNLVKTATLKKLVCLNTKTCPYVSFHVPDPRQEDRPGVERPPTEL
Assay: Purified cyclooxygenase (COX) inhibition
Type: biochemical, ram
Details: arachidonic acid 100 μM, 2.0 min, 37° C.
Method: COX catalyzes the formation of prostaglandins and thromboxane by the oxidative metabolism of arachidonic acid. The compound of Example 1 of this invention, as well as a positive control, (sulindac sulfide) were evaluated to determine whether they inhibited purified cyclooxygenase Type I (see Table 1 below).
The compounds useful in the practice of this invention were evaluated for inhibitory effects on purified COX. The COX was purified from ram seminal vesicles, as described by Boopathy, R. and Balasubramanian, J., 239:371-377, 1988. COX activity was assayed as described by Evans, A. T., et al., “Actions of Cannabis Constituents on Enzymes Of Arachidonate Metabolism Anti-Inflammatory Potential,” Biochem. Pharmacol., 36:2035-2037, 1987. Briefly, purified COX was incubated with arachidonic acid (100 μM) for 2.0 min at 37° C. in the presence or absence of test compounds. The assay was terminated by the addition of TCA, and COX activity was determined by absorbance at 530 nm.

Work on `CC1=C(CC(=O)NCc2ccccc2)c2cc(F)ccc2/C1=C\c1ccncc1` [Example 1, (Z)-5-Fluoro-2-Methyl-(4-Pyridinylidene)-3-(N-Benzyl)-Indenylacetamide] yielded an inhibition at 100 µM of less than 25%.
